The results in this text go back to ChEMBL document CHEMBL5518212, “Structure-Based Design of Novel G-Protein-Coupled Receptor TAAR1 Agonists as Potential Antipsychotic Drug Candidates” (J Med Chem, 2024).

Values after ≈ are worked out from the molar mass of the structure shown.

A short description of data set [1]: Toxicity in C57BL/6J mouse assessed as induction of catalepsy at 3 to 10 mg/kg, po measured at 30 to 60 mins. The format is organism-based. As to conditions: in vivo, dose lower 3 mg/kg, time lower 30 min, dose upper 10 mg/kg, time upper 60 min.
Data set [2] concerns the target T1, Trace amine-associated receptor 1 (Homo sapiens, UniProt Q96RJ0).
T1 sequence (Q96RJ0 whole entry): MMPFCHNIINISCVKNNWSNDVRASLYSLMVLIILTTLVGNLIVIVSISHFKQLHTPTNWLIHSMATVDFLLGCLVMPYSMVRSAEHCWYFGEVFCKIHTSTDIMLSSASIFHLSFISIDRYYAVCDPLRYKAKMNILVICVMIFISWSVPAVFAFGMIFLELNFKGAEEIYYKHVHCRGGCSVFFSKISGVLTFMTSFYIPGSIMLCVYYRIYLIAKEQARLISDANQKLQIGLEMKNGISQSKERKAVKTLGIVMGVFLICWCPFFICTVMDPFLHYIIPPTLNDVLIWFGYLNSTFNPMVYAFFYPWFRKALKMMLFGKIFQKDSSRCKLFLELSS
In words: Agonist activity at Gs-mediated TAAR1 activation (unknown origin) expressed in HEK293 cells pretreated with coelenterazine for 30 mins followed by compound addition by BRET assay. It counts as functional, cell-based.

For data set [3], the target named is T1, Trace amine-associated receptor 1. In words: Agonist activity at Gq-mediated TAAR1 activation (unknown origin) expressed in HEK293 cells pretreated with coelenterazine for 30 mins followed by compound addition by BRET assay. It counts as functional, cell-based.
The species named for another data set is Mus musculus. As to conditions: C57BL/6J, dose 0.3-3 mg/kg, route po, time 70.0 min.
Data set [4] can be described thus: Solubility of the compound at pH 7. It counts as physicochemical. As to conditions: buffer.
Data set [5] is described as follows: Solubility of the compound at pH 2. The format is physicochemical. As to conditions: buffer.
Data set [6] can be described thus: Solubility of the compound at pH 7.4. It counts as physicochemical. As to conditions: buffer.
Data set [7] can be described thus: Toxicity in C57BL/6J mouse assessed as reduction in baseline locomotion at 3 mg/kg, po. The format is organism-based. As to conditions: in vivo.
Data set [8] in a line: Tmax in Sprague-Dawley rat at 10 mg/kg, po measured upto 8 hrs by LC-MS/MS analysis. The format is ADME, organism-based. The conditions noted are these: in vivo.
Data set [9] can be described thus: Cmax in Sprague-Dawley rat at 2 mg/kg, iv measured upto 8 hrs by LC-MS/MS analysis. It counts as ADME, organism-based. As to conditions: in vivo.
The nature of data set [10]: Acute toxicity in Kunming mouse assessed as abnormal behavior at 50 mg/kg, po administered every 2 days for 14 days. As to conditions: in vivo, 336 h, time 14 day. It counts as organism-based.
Data set [11] can be described thus: Toxicity in Kunming mouse assessed as liver damage at 50 mg/kg, po administered every 2 days for 14 days by H and E staining based assay. It counts as organism-based. The conditions noted are these: in vivo, 336 h, time 14 day.
Data set [12] is described as follows: Acute toxicity in Kunming mouse assessed as change in body weight at 50 mg/kg, po administered every 2 days for 14 days. It counts as organism-based. As to conditions: in vivo, 336 h, time 14 day.
The nature of data set [13]: AUC(0 to infinity) in Sprague-Dawley rat at 2 mg/kg, iv measured upto 8 hrs by LC-MS/MS analysis. The conditions noted are these: in vivo. It counts as ADME, organism-based.
Data set [14] is described as follows: Half-life in Sprague-Dawley rat at 2 mg/kg, iv measured upto 8 hrs by LC-MS/MS analysis. It counts as ADME, organism-based. As to conditions: in vivo.
Data set [15] can be described thus: Toxicity in Kunming mouse assessed as lung damage at 50 mg/kg, po administered every 2 days for 14 days by H and E staining based assay. The format is organism-based. The conditions noted are these: in vivo, 336 h, time 14 day.
The nature of data set [16]: Clearance in Sprague-Dawley rat at 2 mg/kg, iv measured upto 8 hrs by LC-MS/MS analysis. The conditions noted are these: in vivo. The format is ADME, organism-based.
Data set [17] in a line: Cmax in Sprague-Dawley rat at 10 mg/kg, po measured upto 8 hrs by LC-MS/MS analysis. The format is ADME, organism-based. The conditions noted are these: in vivo.
Data set [18] in a line: Toxicity in Kunming mouse assessed as heart damage at 50 mg/kg, po administered every 2 days for 14 days by H and E staining based assay. It counts as organism-based. As to conditions: in vivo, 336 h, time 14 day.
Data set [19] is described as follows: Tmax in Sprague-Dawley rat at 2 mg/kg, iv measured upto 8 hrs by LC-MS/MS analysis. The format is ADME, organism-based. As to conditions: in vivo.
Data set [20] in a line: Acute toxicity in Kunming mouse assessed as change in body weight at 500 mg/kg, po measured after 7 days. The format is organism-based. The conditions noted are these: in vivo, 168 h, time 7 day.
A short description of data set [21]: AUC(0 to t) in Sprague-Dawley rat at 2 mg/kg, iv measured upto 8 hrs by LC-MS/MS analysis. The format is ADME, organism-based. The conditions noted are these: in vivo.
Data set [22] is described as follows: AUC(0 to t) in Sprague-Dawley rat at 10 mg/kg, po measured upto 8 hrs by LC-MS/MS analysis. It counts as ADME, organism-based. As to conditions: in vivo.
A short description of data set [23]: Half-life in Sprague-Dawley rat at 10 mg/kg, po measured upto 8 hrs by LC-MS/MS analysis. The format is ADME, organism-based. The conditions noted are these: in vivo.
Data set [24] is described as follows: AUC(0 to infinity) in Sprague-Dawley rat at 10 mg/kg, po measured upto 8 hrs by LC-MS/MS analysis. The format is ADME, organism-based. As to conditions: in vivo.
A short description of data set [25]: Toxicity in Kunming mouse assessed as kidney damage at 50 mg/kg, po administered every 2 days for 14 days by H and E staining based assay. The format is organism-based. The conditions noted are these: in vivo, 336 h, time 14 day.
Data set [26] can be described thus: Oral bioavailability in Sprague-Dawley rat at 10 mg/kg measured upto 8 hrs by LC-MS/MS analysis. It counts as ADME, organism-based. The conditions noted are these: in vivo.
Data set [27] can be described thus: Toxicity in Kunming mouse assessed as spleen damage at 50 mg/kg, po administered every 2 days for 14 days by H and E staining based assay. It counts as organism-based. The conditions noted are these: in vivo, 336 h, time 14 day.

Description for Mus musculus: Inhibition of MK-801 induced hyperlocomotion in po dosed C57BL/6J mouse pretreated for 40 mins followed by MK-801 addition and measured after 30 mins

For the molecule `CN(C)Cc1ccc(-c2cccc(Cl)c2)cc1`, the Activity entry in data set [1] was “Non-Toxic”.
`NCc1ccc(-c2ccccc2)cc1`: the EC50 in data set [2] amounted to 301 nM.
Turning to `NCCc1ccc(Br)cc1`, the EC50 was determined as 66.5 nM in [3] and 9.85 nM in data set [2].
In the case of `Nc1ccc(-c2cccc(F)c2)cc1`, the EC50 in data set [3] was 28.9 nM.
On to `NCCc1ccc(-c2cccc(F)c2)cc1`, for which the EC50 in [2] turned out to be 1.17 nM.
For the molecule `CN(C)Cc1ccc(-c2ccccc2)cc1`, the Activity result in [1] is “Non-Toxic”. For the same molecule, the inhibition result in the data set listed under Mus musculus is “Dose-Dependent Effect”. Further, the EC50 in [2] was 9.46 nM.
Consider `C[C@@H](N)C(=O)Nc1ccc(-c2ccco2)cc1`, for which the solubility in [4] worked out at 710 µg/mL (≈ 3080 µM); in data set [5], 390 µg/mL (≈ 1690 µM); in data set [6] it was 540 µg/mL (≈ 2350 µM). The Activity result in data set [1] and in [7] was “Non-Toxic” each time.
With `C[C@@H](N)C(=O)Nc1ccc(-c2ccco2)cc1.Cl`, the Tmax in data set [8] was 1.5 h; in data set [19] it was 1.8 min. The solubility in data set [4] came out at 7500 µg/mL; in data set [5], 8640 µg/mL; in data set [6] it was 3110 µg/mL. The Cmax in [9] came out at 292 ng/mL; in [17], 154 ng/mL. Moreover, the Activity entry in [10], in data set [11], in [12], in data set [15], in data set [18] and in data set [20] was “Non-Toxic” each time. Also, the Activity result in data set [25] and in [27] was “Non-Toxic” in each case. Besides, the AUC(0-inf) in [13] is 327 ng·h/mL; in data set [24] it was 634 ng·h/mL. Moreover, the half-life in [14] was 1.23 h; in [23] it was 2.31 h. The same molecule registered a clearance in data set [16] of 104 mL/min/kg. For the same molecule, the AUC(0-t) at 8 h in data set [21] came to 323 ng·h/mL; in [22], 627 ng·h/mL. Besides, the bioavailability in data set [26] was 39%.
Regarding `Nc1ccc(-c2ccccc2)cc1` [BIPHENYL-4-AMINE], the EC50 in [3] is 342 nM.
